Reference: PMC12040169 (PLOS Biology, 2025)

Experiment: in vitro
Conditions: human, hela cells, % viability

Compared with `O=C(c1ccc(N2CCSCC2)nc1)N1CCC(N2CCOCC2)CC1` [CBK306582], `Cc1c(C(=O)N2CCCCC2CN2CCOCC2)[nH]c2c(F)cccc12` (stereo not shown) [CBK306751] is higher in viability at 28.5 h, 10 µM: 78.6% for the first, 105% for the second.

Going from `CCOc1ccc(-c2ccnc(N3C[C@@H](C)O[C@@H](C)C3)n2)cc1C(=O)O` [CBK306584] to `CC(=O)c1c(-c2cccc(C(=O)N(C)C3CCN(C)C3)c2)cnn1C` (stereo not shown) [CBK306633], the viability at 28.5 h, 10 µM rises from 92.5% to 106%.

Going from `CN(Cc1nc(-c2ccccc2)no1)C(=O)C1CC2(CCNCC2)CN1` (stereo not shown) [CBK306585] to `O=C(O)C1(Oc2ccc3ccccc3c2)CCN(C2CCNCC2)CC1` [CBK306615], the viability at 28.5 h, 10 µM rises from 88.7% to 108%.

First: N#Cc1cccnc1N1CCC(NC(=O)c2cc(Cl)c[nH]c2=O)CC1 [CBK306586]
Second: CCCN1CCC(NC(=O)c2cc(COc3cccc(F)c3)[nH]n2)CC1 [CBK306753]
The viability at 28.5 h, 10 µM of the first is higher: 104% for the first, 88.5% for the second.

First: CC(=O)N1CC2(CCN(Cc3nccn3C(C)C)CC2)CC1C(=O)O (stereo not shown) [CBK306587]
Second: CC(NC(=O)C1(Cn2ccnc2)CC1)c1nncn1C(C)C (stereo not shown) [CBK306682]
The viability at 28.5 h, 10 µM of the first is lower: 93.7% for the first, 99.5% for the second.

Compared with `CCC(O)Cn1nc(CCSC)nc1-c1cn(C)c(=O)[nH]c1=O` (stereo not shown) [CBK306588], `COCCc1nc(-c2csc(CN(C)C)n2)n(Cc2ccccc2C)n1` [CBK306735] is higher in viability at 28.5 h, 10 µM: 83.5% for the first, 107% for the second.

Going from `Cc1ccc(C)c(NC(=O)CCNC(=O)c2cnn3cc(C)cnc23)c1` [CBK306590] to `COCCN(Cc1cnn(C)c1)Cc1cc(O)c2cc(C)ccc2n1` [CBK306723], the viability at 28.5 h, 10 µM falls from 87.5% to 86.1%.

First: Cc1cccn2c(CN(C)C(C)C(N)=O)c(C(=O)N3CCOCC3)nc12 (stereo not shown) [CBK306592]
Second: Cc1cccn2c(CN3CC(O)C3)c(C(=O)N3CCCCC3)nc12 [CBK306662]
The viability at 28.5 h, 10 µM of the first is higher: 105% for the first, 88.3% for the second.

Going from `O=C(Cn1cccnc1=O)NC(c1ccc2c(c1)CCO2)C1CC(O)C1` (stereo not shown) [CBK306595] to `O=C(NC(c1ccc2c(c1)CCO2)[C@H]1C[C@@H](O)C1)c1c[nH]c(=O)c(Cl)c1` (stereo partly shown) [CBK306634], the viability at 28.5 h, 10 µM rises from 75.3% to 95%.

Going from `CCc1nccn1CCC(=O)N1CC(OCc2ccccc2F)C1` [CBK306597] to `CCn1ccnc1CN1CCOC(Cc2ccccc2Cl)C1` (stereo not shown) [CBK306625], the viability at 28.5 h, 10 µM rises from 88.5% to 94.5%.

First: O=C(CCN1CCn2nc(C(O)C3CC3)cc2C1)NCc1cccs1 (stereo not shown) [CBK306603]
Second: CN(C)CC(O)c1cc2n(n1)CCCN(CC(=O)NCc1cccs1)C2 (stereo not shown) [CBK306738]
The viability at 28.5 h, 10 µM of the first is higher: 93.1% for the first, 91.6% for the second.

First: CCn1c(C)nnc1SCCNc1cc(C)nc2ccnn12 [CBK306607]
Second: CCn1nc(C2CCCC2)nc1-c1cnc2ccnn2c1C [CBK306626]
The viability at 28.5 h, 10 µM of the first is higher: 99.7% for the first, 87.1% for the second.

First: CCCn1cc(NC(=O)NCc2cc3c(cc2OC)CCC3)nn1 [CBK306614]
Second: COc1ccc2cc(C(=O)N3Cc4cnn(CCO)c4C3)n(C)c2c1 [CBK306707]
The viability at 28.5 h, 10 µM of the first is lower: 86.4% for the first, 94.5% for the second.

First: O=C(NCC1CCOC1)c1ccc(-c2ccccc2CO)cc1 (stereo not shown) [CBK306616]
Second: CCCc1cc(C(=O)N[C@@H]2CCOC[C@H]2Oc2ccc(CO)cc2)cs1 [CBK306700]
The viability at 28.5 h, 10 µM of the first is higher: 107% for the first, 91.6% for the second.

Going from `COc1ccnc(NC(c2cnn(C)c2)[C@H]2C[C@@H](O)C2)n1` (stereo partly shown) [CBK306617] to `COc1ccc(C(NC(=O)c2cn3ccsc3n2)[C@H]2C[C@H](O)C2)cn1` (stereo partly shown) [CBK306744], the viability at 28.5 h, 10 µM rises from 97.8% to 101%.

Compared with `Cc1ccc(OCc2occc2C(=O)N2CCCn3cncc3C2)cc1` [CBK306618], `COc1ccc2c(c1)c(C(=O)N1CCn3nc(CO)cc3C1)c(C)n2C` [CBK306764] is lower in viability at 28.5 h, 10 µM: 92.7% for the first, 88.5% for the second.

First: O=C(NCCN1CCCCC1)C1CC(=O)N(Cc2ccncc2)C1 (stereo not shown) [CBK306629]
Second: Cn1ccnc1CNC(=O)c1cccc(OCC(=O)N2CCCCC2)c1 [CBK306635]
The viability at 28.5 h, 10 µM of the first is higher: 100% for the first, 86.8% for the second.

Going from `CCN(CCn1cccn1)c1nc2nonc2nc1N(C)C` [CBK306630] to `c1cnn(CCNc2nc3nonc3nc2N2CCCCC2)c1` [CBK306740], the viability at 28.5 h, 10 µM falls from 88.9% to 83.8%.

Compared with `Cc1cc(N)n(CC(=O)NCCCn2ccnc2C(C)C)n1` [CBK306632], `CCc1nccn1CCCNC(=O)Nc1cccnc1` [CBK306736] is higher in viability at 28.5 h, 10 µM: 89.3% for the first, 94.6% for the second.

Going from `Cc1nc(CCNC(=O)N2CCC(Oc3cccnc3)CC2)sc1Cl` [CBK306636] to `Cc1[nH]c2ccccc2c1CCNC(=O)N(Cc1cnn(C)c1)C1CC1` [CBK306661], the viability at 28.5 h, 10 µM falls from 93.8% to 89%.

Going from `Cc1cccc(OCC2CCCN(C(=O)CCc3nncn3C)C2)c1` (stereo not shown) [CBK306640] to `COc1cccc(CN2CCCC(NC(=O)c3ccccc3Cl)C2)c1` (stereo not shown) [CBK306774], the viability at 28.5 h, 10 µM rises from 88.8% to 117%.

Compared with `Cn1ncc(N2CCC(CNC(=O)c3ccc(F)cc3Cl)C2)cc1=O` (stereo not shown) [CBK306643], `Cn1ncc(N2CCC(CNC(=O)c3ccccc3Cl)C2)cc1=O` (stereo not shown) [CBK306747] is lower in viability at 28.5 h, 10 µM: 97.1% for the first, 95.2% for the second.

First: CCn1cc(CN2CCC(Oc3cc(C)ccc3F)(C(=O)O)CC2)cn1 [CBK306644]
Second: O=C(O)C1(Oc2ccc3ccccc3c2)CCN(CC2CCOC2)CC1 (stereo not shown) [CBK306767]
The viability at 28.5 h, 10 µM of the first is higher: 96.1% for the first, 91.4% for the second.

First: COC(=O)C1CCCN1C(=O)C1(Oc2ccc(C)cc2)CCNCC1 (stereo not shown) [CBK306655]
Second: CCOC(=O)C1(NC(=O)C2(Oc3cccnc3C)CCNCC2)CCC1 [CBK306688]
The viability at 28.5 h, 10 µM of the first is higher: 96.5% for the first, 89.9% for the second.

Compared with `CCS(=O)(=O)NC1CC(C)(C)Cc2c1cnn2-c1ccc(OC)cc1` (stereo not shown) [CBK306656], `CCCS(=O)(=O)NC1CC(C)(C)Cc2c1cnn2-c1ccc(OC)cc1` (stereo not shown) [CBK306730] is lower in viability at 28.5 h, 10 µM: 116% for the first, 103% for the second.

Compared with `CCCCSc1nc(N)cc(N2CCOCC(CN(C)C)C2)n1` (stereo not shown) [CBK306659], `CCN(CCN1CCOCC1)C(=O)c1[nH]c2c(F)cccc2c1C` [CBK306772] is lower in viability at 28.5 h, 10 µM: 103% for the first, 90.3% for the second.

Going from `COc1ccccc1-n1nc(CC(C)C)nc1C(C)NS(C)(=O)=O` (stereo not shown) [CBK306660] to `CC(C)N(C(=O)c1ccccc1-c1cnc2nncn2c1)C(C)C` [CBK306701], the viability at 28.5 h, 10 µM rises from 95.6% to 99.8%.

Going from `CCCCC(c1cccnc1)N(C)C(=O)CCc1ccnn1C` (stereo not shown) [CBK306664] to `CCCCC(c1cccnc1)N(C)C(=O)c1ccnc(-n2cnnc2)c1` (stereo not shown) [CBK306786], the viability at 28.5 h, 10 µM falls from 117% to 84.2%.

Compared with `Cc1nn(C)cc1CN(C)CC(=O)Nc1nc2c(s1)CC(C)CC2` (stereo not shown) [CBK306669], `CC(=O)Nc1ccc(CNC(=O)CN(C)Cc2nc(C3CC3)no2)cc1` [CBK306695] is higher in viability at 28.5 h, 10 µM: 90.6% for the first, 114% for the second.

Going from `CCN1CCN(Cc2cnc(-c3ccccn3)nc2)CC1=O` [CBK306678] to `CN1CCN(Cc2ccc(-c3ccc(C(N)=O)cc3)nc2)CC1` [CBK306750], the viability at 28.5 h, 10 µM falls from 99.9% to 87.3%.

Going from `CN(Cc1cnn(C)c1)C(=O)COCc1nc2cc(F)ccc2[nH]1` [CBK306687] to `CCOc1ccc(NC(=O)N(CCOC)Cc2cnn(C)c2)cc1Cl` [CBK306697], the viability at 28.5 h, 10 µM falls from 94.3% to 90.3%.

First: CN(CCN1CCCC1)c1nccc(N2CCN[C@H]3CS(=O)(=O)C[C@H]32)n1 [CBK306692]
Second: Cn1c(N2CC[C@H](O)C2)nc2cc(C(=O)NC3CCCC3)ccc21 [CBK306779]
The viability at 28.5 h, 10 µM of the first is lower: 85.6% for the first, 97.6% for the second.

First: Cc1nc(O)cc(C2CCCN(C(=O)c3csc4c3CCCC4)C2)n1 (stereo not shown) [CBK306696]
Second: O=C(NCc1csc2c1CCCC2)N1CCCC(c2cc(O)ncn2)C1 (stereo not shown) [CBK306705]
The viability at 28.5 h, 10 µM of the first is lower: 87.3% for the first, 99.3% for the second.

Going from `CN(Cc1nc2c(s1)CCCC2)C(=O)CCn1nnc2ccccc21` [CBK306704] to `CN(CCCc1cnn(C)c1)c1nc(N)nc2c1CCCC2` [CBK306766], the viability at 28.5 h, 10 µM falls from 107% to 96.5%.

First: O=C(NC1CCNC1)c1cccc(S(=O)(=O)NCc2ccsc2)c1 (stereo not shown) [CBK306706]
Second: COC1CCN(S(=O)(=O)c2cc(-n3cccn3)ccc2C)C1 (stereo not shown) [CBK306757]
The viability at 28.5 h, 10 µM of the first is lower: 88% for the first, 92.8% for the second.

First: CCC(O)c1cc2n(n1)CCN(C(=O)c1cn(-c3ccccc3)nn1)C2 (stereo not shown) [CBK306708]
Second: CCc1c(C)nc(C)nc1N1CCCn2nc(C(O)C3CC3)cc2C1 (stereo not shown) [CBK306778]
The viability at 28.5 h, 10 µM of the first is lower: 93.7% for the first, 100% for the second.

Going from `CCCCCN1CCn2nc(CNc3cnccn3)cc2C1` [CBK306713] to `Cn1nc(NC(=O)c2cnccn2)c2c(N3CCOCC3)cccc21` [CBK306716], the viability at 28.5 h, 10 µM rises from 77.2% to 100%.

Going from `Cc1cnn(-c2cc(N3CCC(n4cc(C5CC5)nn4)CC3)ncn2)c1` [CBK306721] to `CCc1nc2c(N3CCC(n4nc(C)cc4C)C3)ncnc2o1` (stereo not shown) [CBK306785], the viability at 28.5 h, 10 µM rises from 96.2% to 111%.

Compared with `Cc1nn(C)cc1-c1c(C#N)c(N)nc2c1CN(Cc1ccco1)CC2` [CBK306722], `CCOC(=O)C1CCCN(Cc2nc(-c3ccc(F)cc3F)oc2C)C1` (stereo not shown) [CBK306749] is higher in viability at 28.5 h, 10 µM: 90.4% for the first, 94.3% for the second.

Compared with `COCCNc1nc2c(c(N3CCCCCC3)n1)CCNCC2` [CBK306724], `CSCCC(=O)NC1CCCc2nc(N3CCC(CO)CC3)ncc21` (stereo not shown) [CBK306782] is lower in viability at 28.5 h, 10 µM: 104% for the first, 91.3% for the second.

Going from `COc1cccn(CC(=O)N(C)CCc2scnc2C)c1=O` [CBK306726] to `CN(Cc1ncc[nH]1)C(=O)c1cn(Cc2cccc(C(F)(F)F)c2)nn1` [CBK306768], the viability at 28.5 h, 10 µM falls from 94.2% to 84.4%.

Compared with `COc1ccc(CN(C)C2CCOCC2)cc1Cn1cncn1` [CBK306728], `Cc1cc(C(=O)N2CCC(c3nnc(CN(C)C)n3C)CC2)ccc1F` [CBK306748] is higher in viability at 28.5 h, 10 µM: 93.9% for the first, 95.5% for the second.

Going from `CSc1nc(C(=O)N2CCCCC2c2cccc(F)c2)cs1` (stereo not shown) [CBK306732] to `CCNC(=O)N1CCCC(Cc2ccc(F)cc2F)(C(=O)OCC)C1` (stereo not shown) [CBK306734], the viability at 28.5 h, 10 µM falls from 108% to 81.9%.

First: Cc1cc(C(F)(F)F)n(CC(C)CNC(=O)Cc2csc(C)n2)n1 (stereo not shown) [CBK306733]
Second: O=C(CN1CCCCCC1=O)NCC(CO)Cc1ccsc1 (stereo not shown) [CBK306763]
The viability at 28.5 h, 10 µM of the first is lower: 87.8% for the first, 118% for the second.

Going from `Cc1ccc(Cl)cc1C(=O)N[C@H]1C[C@@H](c2nnc(CO)n2C2CC2)C1` [CBK306746] to `CCCc1nnc2sc(C3CCCN(C(C)C)C3)nn12` (stereo not shown) [CBK306781], the viability at 28.5 h, 10 µM falls from 92.8% to 85.3%.

With `COc1cc(C)cc(OC)c1-c1ncnc(C)c1C` [CBK306762] the viability at 28.5 h, 10 µM was 85.7%.
